No end group written: not given here.
Columns and labels:
HMG-CoA reductase = test: Expression of HMG-CoA reductase in normal human keratinocytes (immunofluorescence); type: cell-based; settings: peptide 0.5 ppm (1% of 50 ppm stock), 24 or 48 hours
Experimental: Protocol: Normal human keratinocytes in culture are treated with a 1% stock solution at 50 ppm of peptide SEQ ID No. 5 for 24 or 48 hours (the medium in the presence of the active ingredient is changed every 24 hours). The cells are then washed and fixed in cold methanol for 4 minutes at 4° C. The cells are incubated in the presence of a polyclonal rabbit antibody specific for HMG-CoA reductase (Millipore, Upstate), and then a secondary antibody coupled with a fluorescent dye. The cells are then examined by epifluorescence microscope (Nikon Eclipse E600 microscope).

interleukin-1 alpha = test: Ex vivo IL-1 alpha secretion by human skin biopsies (ELISA); type: cell-based; settings: peptide 0.5 ppm 24 h, vs controls untreated by the peptide
Experimental: Protocol: 5 mm-diameter biopsies of human skin are maintained in culture at the air-liquid interface in the presence of standard culture medium. The samples are treated with a 1% dilution of a solution at 50 ppm of peptide SEQ ID No. 5 for 24 hours, and then irradiated by UVB radiation (200 mJ/cm^2) and put back in culture for 24 hours, or subjected to contact with SDS at 2.5% for 24 hours in the presence of the same concentration of peptide SEQ ID No. 5. Controls untreated by the peptide are carried out under the same conditions. At the end of the experiment, the quantity of interleukin-1 alpha salted out in the culture medium is assayed by the ELISA technique.

expression of HMG-CoA reductase (cytoplasmic fluorescence, microscopic observation) (HMG-CoA reductase): more intense cytoplasmic fluorescence
Substance: Ala-Gly-Glu-Leu-Ser-NH2 (AGELS-NH2) [Peptide SEQ ID No. 5]
reduction of quantity of IL-1 alpha salted out in culture medium (interleukin-1 alpha; SDS 2.5% for 24 hours with peptide): 58%
reduction of quantity of IL-1 alpha salted out in culture medium (interleukin-1 alpha; UVB 200 mJ/cm^2, then 24 h culture): 40%

— patent US8546340B2, “Soothing pharmaceutical or cosmetic composition comprising a peptide that activates HMG-CoA reductase” (ISP Investments Inc., priority 2008, dated 2013)
